These results are taken from US20240398844A1, “PHENYLCOUMARINS FOR TREATING INFLAMMATION” (Ohio State Innovation Foundation, priority 2021, published 2024).

In general, IC50 refers to the point on the concentration scale where inhibition reaches its midpoint.

The test system of experiment [1] is NFκB. Nature of the experiment: NFκB in vitro assay, NFκB translocation to the nucleus in HeLa cells. Type of experiment: cell-based. To be noted: for IC50: inhibiting NFκB translocation to the nucleus, tested at 50, 5, 0.5, and 0.05 μM. The protocol: Following derivatization and purification, compound 40 was tested in the NFκB and PPAR-Y in vitro assays, as well as the diabetic zebrafish Western blot. The three 4-phenylcoumarin glycoside natural products from the diverse library (22, 23, and 24) and the isopropyl ether derivative (40), were evaluated for PPAR-γ activity at 50 μg/mL in HeLa cells according to a PPAR-γ ELISA Assay (Table 4). […] NFκB Assay (Table 4).
As an excellent lead, 24 was derivatized to yield 40, and both compounds were evaluated in the NFκB and PPAR-γ in vitro assays (Table 4). […] To investigate 24 and 40 in a live, metabolizing system with appropriate hormone responses, the compounds were tested (at 10, 5, and 1 μM) in the larval diabetic zebrafish assay.

Experiment [2] has as its system HbA1C. In words: Diabetic zebrafish Western blot, HbA1C expression. The class given is in vivo. The protocol: (§1) Alloxan-induced diabetic zebrafish were treated with compounds for immunoblot to validate the newly developed animal model, determine the antidiabetic potential of natural product leads, evaluate glucose metabolism, and discover possible mechanisms of action.
At 72 hpf, naturally dechorionated zebrafish were sorted into a 24-well microplate with 10 fish per well. Type 2 diabetes was induced with the diabetogenic agent alloxan at a dose of 0.5 mg/mL in system water for 3 hours. […] After 3 hours of treatment with natural product samples, 10 mg/mL D-glucose was administered in system water for 30 minutes, followed by 1 hour in fresh system water to metabolize the glucose and natural product leads. Upon completion of the 4-phase treatment cycle, zebrafish treatment groups were snap frozen into individual microcentrifuge tubes on dry ice, stored overnight at −80° C., thawed, homogenized with 2 μL PBS per animal, and centrifuged at 4° C. for 1 hour at 17,000 rpm. Protein content of homogenate supernatant was determined using the Pierce BCA Protein Assay kit (Pierce Biotechnology) and bovine serum albumin (BSA) standard curve. Absorbance of protein solutions from zebrafish homogenates and serial dilutions of the BSA standard were measured at 544 nm, using a FLUOstar Optima plate reader (BMG Labtechnologies GmbH, Inc.). Homogenates were analyzed by Western blot. Equal amounts of protein (20 μg) were combined with 4× lithium dodecyl sulphate (LDS) loading buffer (NuPAGE, Life Technologies, Carlsbad, CA, USA), brought to volume (15 μL) with PBS, and heated to 95° C. for 5 minutes. Proteins were resolved using NuPAGE Bis-Tris 4-12% gradient sodium dodecyl sulfate polyacrylamide gel electrophoresis (SDS-PAGE) gels together with SeeBlue Plus2 Pre-Stained Standard Ladder (Life Technologies).
(§2) Electrophoresis was performed using NuPAGE MES SDS Running Buffer and XCell SureLock Mini-Cell Electrophoresis System (Life Technologies). Separated proteins were transferred from the gel to a polyvinylidene fluoride (PVDF) membrane using tris buffered saline with Tween-20 (TBST) buffer. The blots were blocked in 3% BSA in TBST and subsequently probed using primary antibodies (1:1000 in 1% BSA in TBST) against each target overnight (Table 1). The secondary, horseradish peroxidase (HRP) conjugated antibodies (1:2000) were obtained from Santa Cruz Biotechnology Inc., (Santa Cruz, CA, USA). Conjugated antibodies were detected using SuperSignal West Femto chemiluminescent substrate from Pierce Biotechnology. Western blots were visualized, and images captured using a luminometer and LumiAnalyst 3.0 software (Boehringer-Mannheim, Mannheim, Germany). Band density was quantified for proteins of interest using ImageJ Gel Analysis.
In the case of duplicate blots, the band density results were expressed in bar graphs as the mean±standard error of the mean (SEM) of two independent experiments. Due to the labor- and time-intensive aspect of Western blot analysis with multiple target proteins, a maximum of two independent immunoblot experiments were performed per compared sample set. […] Additionally, treatment groups were also evaluated versus the diabetic, untreated control group for significance by Student's f-test and indicated in the bar graphs with p values represented by *p<0.05, **p<0.01, and ***p<0.001. […]
On the technique in general: In western blotting, separated proteins are transferred to a membrane and probed.

In experiment [3] the test system is PPAR-γ. Nature of the experiment: Diabetic zebrafish Western blot, PPAR-γ expression. The class given is in vivo. To be noted: for PPAR-γ expression, dose dependence: diabetic zebrafish, 10, 5, and 1 μM. As for the experimental part:
as §1
At 72 hpf, naturally dechorionated zebrafish were sorted into a 24-well microplate with 10 fish per well. Type 2 diabetes was induced with the diabetogenic agent alloxan at a dose of 0.5 mg/mL in system water for 3 hours. The incubation solution was changed to 0.01% DMSO in system water with compounds at concentrations of 20 μg/mL or […], respectively. After 3 hours of treatment with natural product samples, 10 mg/mL D-glucose was administered in system water for 30 minutes, followed by 1 hour in fresh system water to metabolize the glucose and natural product leads. Upon completion of the 4-phase treatment cycle, zebrafish treatment groups were snap frozen into individual microcentrifuge tubes on dry ice, stored overnight at −80° C., thawed, homogenized with 2 μL PBS per animal, and centrifuged at 4° C. for 1 hour at 17,000 rpm. Protein content of homogenate supernatant was determined using the Pierce BCA Protein Assay kit (Pierce Biotechnology) and bovine serum albumin (BSA) standard curve. Absorbance of protein solutions from zebrafish homogenates and serial dilutions of the BSA standard were measured at 544 nm, using a FLUOstar Optima plate reader (BMG Labtechnologies GmbH, Inc.). Homogenates were analyzed by Western blot. Equal amounts of protein (20 μg) were combined with 4× lithium dodecyl sulphate (LDS) loading buffer (NuPAGE, Life Technologies, Carlsbad, CA, USA), brought to volume (15 μL) with PBS, and heated to 95° C. for 5 minutes. Proteins were resolved using NuPAGE Bis-Tris 4-12% gradient sodium dodecyl sulfate polyacrylamide gel electrophoresis (SDS-PAGE) gels together with SeeBlue Plus2 Pre-Stained Standard Ladder (Life Technologies).
as §2, with “Western blots were visualized, and images captured using a luminometer and LumiAnalyst 3.0 software (Boehringer-Mannheim, Mannheim, Germany).” left out, “Analysis. […]” for “Analysis.”

Experiment [4] deals with PEPCK. In words: Diabetic zebrafish Western blot, PEPCK expression. Type of experiment: in vivo. The following applies: FIG. 8; for PEPCK expression, efficacy of lower doses: diabetic zebrafish, 5 and 1 μM; for PEPCK expression, dose dependence: diabetic zebrafish, 10, 5, and 1 μM.
Where [5] appears, read: diabetic zebrafish, 10, 5, and 1 μM (rosiglitazone 10 μM), duplicate blots, FIG. 7.

“Also recorded” adds a separate entry of the source.

For the molecule `COc1cc(O[C@@H]2OCC(O)(CO[C@@H]3OC(CO)[C@@H](O)C(O)C3O)C2O)c2c(-c3ccc(OC(C)C)c(O)c3)cc(=O)oc2c1` (single isomer, unassigned) [Compound 40], in experiment [1], the “times less effective at inhibiting NFκB translocation than parent compound 24” value stood at 2.6 times and the IC50 was found to be 10.2 µM. In experiment [2] (setting [5]), the “HbA1C expression (Western blot band density)” value (from here on “HbA1C expression”) was “lacking a dose-dependent response”. The “PPAR-γ expression, dose dependence” value in experiment [3] (FIG. 9) is recorded as “dose-dependent activation of PPAR-γ; also recorded: not as effective as 24”. Moreover, in experiment [4], the “PEPCK expression, efficacy of lower doses” value was “not effective” and the “PEPCK expression, dose dependence” value was “dose-dependent increase in PEPCK expression; also recorded: slightly less active than the parent compound”.
In experiment [1], `COc1cc(O[C@@H]2O[C@H](CO[C@@H]3OCC(O)(CO)[C@H]3O)[C@@H](O)[C@H](O)[C@H]2O)c2c(-c3ccc(O)c(O)c3)cc(=O)oc2c1` (stereo partly drawn) [Compound 24, 5-O-[β-D-apiofuranosyl-(1→6)-β-D-glucopyranosyl]-7-methoxy-3′,4′-dihydroxy-4-phenylcoumarin] yielded an IC50 of 3.95 µM. Besides, in experiment [2] (diabetic zebrafish, 10 μM, library screen, FIG. 2 / FIG. 11), the “HbA1C expression” value is on record as “most effective in reducing glycated hemoglobin”. Besides, the “HbA1C expression” value in experiment [2] (setting [5]) is “reduced glycated hemoglobin levels in comparison to rosiglitazone”. For the same molecule, in experiment [3] (diabetic zebrafish, 10 μM, library screen, FIG. 3 / FIG. 11), the “PPAR-γ expression (Western blot band density)” value was “greater PPAR-7 expression than the PPAR-γ positive control; also recorded: greatest PPAR-γ activation surpassing even the positive control thiazolidinedione”. The “PPAR-γ expression, dose dependence” value in experiment [3] (FIG. 9) was “dose-dependent activation of PPAR-γ”. In addition, the “PPAR-γ expression versus rosiglitazone” value in experiment [3] (diabetic zebrafish, same concentration (10 μM), FIG. 9) is reported as “greater PPAR-γ expression than the FDA-approved PPAR-γ agonist”. Also, in experiment [4], the “PEPCK expression, efficacy of lower doses” value is “not effective” and the “PEPCK expression, dose dependence” value is “dose-dependent increase in PEPCK expression”.
